Test results from patent US20260070951A1, “MICROPAKINE K2 ANTIMICROBIAL POLYPEPTIDE, COMPOSITION COMPRISING IT AND USE FOR TREATING BACTERIAL INFECTIONS” (priority 2022, published 2026).

Tests used:
Experiment in all cases: Inhibition zone test of compositions on Mueller Hinton lawn
Assay type in all cases: cell-based
S. aureus = conditions: MPK2 200 AU/mL, 24 hours
Description: (§1) Different compositions comprising the MicroPacin K2 polypeptide were prepared in different vehicles: 10% w/v methanol, 10% w/v glycerol, 0.5% w/v polyethylene glycol, and water. In the case of the MicroPacin K2 polypeptide, it was used at a concentration of 200 AU/mL in each composition.
(§2) A 5 μL aliquot of each of the prepared compositions was taken and added to a plate with Mueller Hinton medium containing the sensitivity indicator bacteria, previously seeded in the form of a lawn. The plates were then incubated for 24 hours, and the antibacterial activity of the compositions was observed according to the appearance and size of the inhibition zone. This test, in turn, was performed under the same conditions with the commercial bacteriocin Nisin as a comparator agent, which is considered a gold standard bacteriocin, for being approved by the FDA (Food and Drug Administration).
(§3) In this example, the antibacterial effect of compositions comprising the polypeptide MicroPacin K2 and an additional antibacterial agent, including nisin (5,000 AU/mL), ampicillin (0.01 μg/mL), and tetracycline (0.05 μg/mL), is evaluated. The assay was performed using distilled water as the vehicle for the composition. The final concentration of MicroPacin K2 in the compositions evaluated was 200 AU/mL.

B. cereus = conditions: MPK2 200 AU/mL, 24 hours
Description: as §1, §2, §3

S. saprophyticus = conditions: MPK2 200 AU/mL, 24 hours
Description: as §1, §2, §3

E. coli DH5α = conditions: MPK2 200 AU/mL, 24 hours
Description: as §1, §2, §3

E. coli O157:H7 = conditions: for Zone of growth inhibition: MPK2 200 AU/mL, 24 hours
Description: as §1, §2, §3

L. monocytogenes = conditions: MPK2 200 AU/mL, 24 hours
Description: as §1, §2, §3

C. freundii = conditions: MPK2 200 AU/mL, 24 hours
Description: as §1, §2, §3

S. sonnei = conditions: for Zone of growth inhibition: S. sonnei, MPK2 200 AU/mL, 24 hours
Description: as §1, §2, §3

For Nisin [reference compound], which “Zone of growth inhibition” value (S. aureus; vehicle Glycerol 10%) is on record?
Its value is 9.0 mm.

And the “Zone of growth inhibition” value (S. aureus; vehicle H2O)?
Its value is 9.0 mm.

What about the “Zone of growth inhibition” value (S. aureus; vehicle Methanol 10%) of the same substance?
The value was 8.0 mm.

What about the “Zone of growth inhibition” value (S. aureus; vehicle PEG 0.5%) of the same substance?
Its value is 8.0 mm.

And the “Zone of growth inhibition” value (B. cereus; vehicle Glycerol 10%)?
Its value is 9.0 mm.

And the “Zone of growth inhibition” value (B. cereus; vehicle H2O)?
Its value is 8.0 mm.

And the “Zone of growth inhibition” value (B. cereus; vehicle Methanol 10%)?
The value was 8.0 mm.

And the “Zone of growth inhibition” value (B. cereus; vehicle PEG 0.5%)?
The value was 9.0 mm.

And the “Zone of growth inhibition” value (S. saprophyticus; vehicle Glycerol 10%)?
Its value is 10.0 mm.

And the “Zone of growth inhibition” value (S. saprophyticus; vehicle H2O)?
Its value is 10.0 mm.

And the “Zone of growth inhibition” value (S. saprophyticus; vehicle Methanol 10%)?
The value was 10.0 mm.

And the “Zone of growth inhibition” value (S. saprophyticus; vehicle PEG 0.5%)?
The value was 9.0 mm.

And the “Zone of growth inhibition” value (E. coli DH5α; vehicle Glycerol 10%)?
Its value is 8.0 mm.

What about the “Zone of growth inhibition” value (E. coli DH5α; vehicle H2O) of the same substance?
The value was 8.0 mm.

And the “Zone of growth inhibition” value (E. coli DH5α; vehicle Methanol 10%)?
Its value is 8.0 mm.

What about the “Zone of growth inhibition” value (E. coli DH5α; vehicle PEG 0.5%) of the same substance?
The value was 8.0 mm.

And the “Inhibition of growth (inhibition halo)” value (E. coli O157:H7; compositions)?
Its value is “not able to inhibit their growth”.

And the “Zone of growth inhibition” value (E. coli O157:H7; vehicle Glycerol 10%)?
Its value is 0 mm.

And the “Zone of growth inhibition” value (E. coli O157:H7; vehicle H2O)?
Its value is 0 mm.

What about the “Zone of growth inhibition” value (E. coli O157:H7; vehicle Methanol 10%) of the same substance?
The value was 0 mm.

What about the “Zone of growth inhibition” value (E. coli O157:H7; vehicle PEG 0.5%) of the same substance?
The value was 0 mm.

What about the “Zone of growth inhibition” value (L. monocytogenes; vehicle Glycerol 10%) of the same substance?
Its value is 9.0 mm.

What about the “Zone of growth inhibition” value (L. monocytogenes; vehicle H2O) of the same substance?
Its value is 9.0 mm.

What about the “Zone of growth inhibition” value (L. monocytogenes; vehicle Methanol 10%) of the same substance?
The value was 9.0 mm.

And the “Zone of growth inhibition” value (L. monocytogenes; vehicle PEG 0.5%)?
The value was 9.0 mm.

And the “Zone of growth inhibition” value (C. freundii; vehicle Glycerol 10%)?
Its value is 8.0 mm.

And the “Zone of growth inhibition” value (C. freundii; vehicle H2O)?
The value was 8.0 mm.

What about the “Zone of growth inhibition” value (C. freundii; vehicle Methanol 10%) of the same substance?
The value was 8.0 mm.

What about the “Zone of growth inhibition” value (C. freundii; vehicle PEG 0.5%) of the same substance?
Its value is 7.0 mm.

What about the “Zone of growth inhibition” value (S. sonnei; vehicle Glycerol 10%) of the same substance?
The value was 0 mm.

What about the “Zone of growth inhibition” value (S. sonnei; vehicle H2O) of the same substance?
Its value is 0 mm.

And the “Zone of growth inhibition” value (S. sonnei; vehicle Methanol 10%)?
Its value is 0 mm.

And the “Zone of growth inhibition” value (S. sonnei; vehicle PEG 0.5%)?
Its value is 0 mm.

What about the “Inhibition of growth (inhibition halo)” value (S. sonnei; Shigella sonnei, compositions) of the same substance?
Its value is “not able to inhibit their growth”.
